Assay results as given in US10294202B2, “Pyrrolidinones as herbicides” (FMC Corporation, priority 2013, dated 2019).

Tests used:
[1] = system: wheat; assay: Test A pre-/postemergence herbicide test; format: in vivo, Triticum aestivum; settings: Postemergence
Method in brief: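 Directed soil spray to seeded pots (preemergence) or spray onto one- to two-leaf seedlings 2–10 cm tall (postemergence); loam/sand substrate throughout. Evaluated visually after about 10 days against untreated plants, 0 = no effect, 100 = complete control.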

[2] = system: rice; assay: Test B flooded paddy test; format: in vivo, Oryza sativa; settings: 500 g ai/ha, Flood; scale of 0 to 100 where 0 is no effect and 100 is complete control
Method in brief: (§1)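 Paddy-water application at a 3 cm flood, young plants having two leaves. Water level maintained; greenhouse, 13–15 days; visual 0–100 control rating.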

[3] = system: sedge, umbrella; assay: Test B flooded paddy test; format: in vivo, Cyperus difformis; settings: 500 g ai/ha, Flood; scale of 0 to 100 where 0 is no effect and 100 is complete control
Method in brief: as §1

[4] = system: ducksalad; assay: Test B flooded paddy test; format: in vivo, Heteranthera limosa; settings: 500 g ai/ha, Flood; scale of 0 to 100 where 0 is no effect and 100 is complete control
Method in brief: as §1

[5] = system: barnyardgrass; assay: Test B flooded paddy test; format: in vivo, Echinochloa crus-galli; settings: 500 g ai/ha, Flood; scale of 0 to 100 where 0 is no effect and 100 is complete control
Method in brief: as §1

[6] = system: ryegrass, Italian; assay: Test C pre-/postemergence herbicide test; format: in vivo, Lolium multiflorum
Method in brief: (§2)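 Two application timings ran in parallel with identically formulated test chemicals (non-phytotoxic solvent, surfactant included): spray on seeded loam–sand soil, and spray on emerged plants 2 to 18 cm high. Evaluation at 13 to 15 days compared each species with controls, rated from 0 up to 100.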

[7] = system: corn; assay: Test C pre-/postemergence herbicide test; format: in vivo, Zea mays
Method in brief: as §2

[8] = system: johnsongrass; assay: Test C pre-/postemergence herbicide test; format: in vivo, Sorghum halepense
Method in brief: as §2

[9] = system: nutsedge, yellow; assay: Test C pre-/postemergence herbicide test; format: in vivo, Cyperus esculentus
Method in brief: as §2

[10] = system: pigweed; assay: Test C pre-/postemergence herbicide test; format: in vivo, Amaranthus retroflexus
Method in brief: as §2

[11] = system: ragweed; assay: Test C pre-/postemergence herbicide test; format: in vivo, Ambrosia elatior
Method in brief: as §2

[12] = system: soybean; assay: Test C pre-/postemergence herbicide test; format: in vivo, Glycine max
Method in brief: as §2

[13] = system: oilseed rape; assay: Test C pre-/postemergence herbicide test; format: in vivo, Brassica napus
Method in brief: as §2

[14] = Postemergence, 31 g ai/ha, scale 0 to 100 (0 no effect, 100 complete control)
[15] = Postemergence, 62 g ai/ha, scale 0 (no effect) to 100 (complete control)
[16] = Postemergence, 125 g ai/ha, scale 0 to 100 (0 no effect, 100 complete control)
[17] = Postemergence, 250 g ai/ha, scale 0 to 100 (0 no effect, 100 complete control)
[18] = Preemergence, 31 g ai/ha, scale 0 to 100, 0 is no effect and 100 is complete control
[19] = Preemergence, 62 g ai/ha, scale 0 to 100 (0 no effect, 100 complete control)
[20] = Preemergence, 125 g ai/ha, scale 0 to 100 (0 no effect, 100 complete control)

SMILES: O=C1NCC(c2cccc(OC(F)F)c2)C1C(=O)Nc1ccccc1F (centres unmarked) [Compound 223]
- Plant response rating, Wheat ([1]; 125 g ai/ha, 0 to 100 scale, 0 is no effect, 100 is complete control): 40
- Wheat plant response rating (0 to 100 scale, 0 is no effect, 100 is complete control) ([1]; 500 g ai/ha): 50
- Plant response rating, Rice [2]: 0
- Plant response rating, Sedge, Umbrella [3]: 0
- Plant response rating, Ducksalad [4]: 100
- Plant response rating, Barnyardgrass [5]: 75
- Plant response rating, Ryegrass, Italian [6, 14]: 0
- Plant response rating, Ryegrass, Italian [6, 15]: 0
- Plant response rating, Ryegrass, Italian [6, 16]: 0
- Plant response rating, Ryegrass, Italian [6, 17]: 0
- Ryegrass, Italian plant response rating [6, 18]: 0
- Ryegrass, Italian plant response rating [6, 19]: 0
- Plant response rating, Ryegrass, Italian [6, 20]: 10
- Plant response rating (scale of 0 to 100), Ryegrass, Italian ([6]; Preemergence, 250 g ai/ha): 15
- Plant response rating, Corn [7, 14]: 0
- Plant response rating, Corn [7, 15]: 0
- Plant response rating, Corn [7, 16]: 0
- Plant response rating, Corn [7, 17]: 5
- Corn plant response rating [7, 18]: 0
- Corn plant response rating [7, 19]: 0
- Plant response rating, Corn [7, 20]: 0
- Plant response rating (scale of 0 to 100), Corn ([7]; Preemergence, 250 g ai/ha): 45
- Plant response rating, Johnsongrass [8, 14]: 0
- Plant response rating, Johnsongrass [8, 15]: 0
- Plant response rating, Johnsongrass [8, 16]: 0
- Plant response rating, Johnsongrass [8, 17]: 0
- Johnsongrass plant response rating [8, 18]: 0
- Johnsongrass plant response rating [8, 19]: 0
- Plant response rating, Johnsongrass [8, 20]: 35
- Plant response rating (scale of 0 to 100), Johnsongrass ([8]; Preemergence, 250 g ai/ha): 55
- Plant response rating, Nutsedge, Yellow [9, 14]: 0
- Plant response rating, Nutsedge, Yellow [9, 15]: 0
- Plant response rating, Nutsedge, Yellow [9, 16]: 0
- Plant response rating, Nutsedge, Yellow [9, 17]: 0
- Nutsedge, Yellow plant response rating [9, 18]: 100
- Nutsedge, Yellow plant response rating [9, 19]: 0
- Plant response rating, Nutsedge, Yellow [9, 20]: 0
- Plant response rating (scale of 0 to 100), Nutsedge, Yellow ([9]; Preemergence, 250 g ai/ha): 0
- Plant response rating, Pigweed [10, 14]: 5
- Plant response rating, Pigweed [10, 15]: 10
- Plant response rating, Pigweed [10, 16]: 10
- Plant response rating, Pigweed [10, 17]: 60
- Pigweed plant response rating [10, 18]: 20
- Pigweed plant response rating [10, 19]: 5
- Plant response rating, Pigweed [10, 20]: 20
- Plant response rating (scale of 0 to 100), Pigweed ([10]; Preemergence, 250 g ai/ha): 30
- Plant response rating, Ragweed [11, 14]: 0
- Plant response rating, Ragweed [11, 15]: 0
- Plant response rating, Ragweed [11, 16]: 35
- Plant response rating, Ragweed [11, 17]: 35
- Ragweed plant response rating [11, 18]: 0
- Ragweed plant response rating [11, 19]: 0
- Plant response rating, Ragweed [11, 20]: 10
- Plant response rating (scale of 0 to 100), Ragweed ([11]; Preemergence, 250 g ai/ha): 25
- Plant response rating, Soybean [12, 14]: 10
- Plant response rating, Soybean [12, 15]: 0
- Plant response rating, Soybean [12, 16]: 0
- Plant response rating, Soybean [12, 17]: 30
- Soybean plant response rating [12, 18]: 0
- Soybean plant response rating [12, 19]: 5
- Plant response rating, Soybean [12, 20]: 5
- Plant response rating (scale of 0 to 100), Soybean ([12]; Preemergence, 250 g ai/ha): 15
- Plant response rating, Oilseed Rape [13, 14]: 0
- Plant response rating, Oilseed Rape [13, 15]: 0
- Plant response rating, Oilseed Rape [13, 16]: 0
- Plant response rating, Oilseed Rape [13, 17]: 10
- Oilseed Rape plant response rating [13, 18]: 0
- Oilseed Rape plant response rating [13, 19]: 0
- Plant response rating, Oilseed Rape [13, 20]: 0
- Plant response rating (scale of 0 to 100), Oilseed Rape ([13]; Preemergence, 250 g ai/ha): 5

SMILES: O=C1NCC(c2cccc(Cl)c2)C1C(=O)Nc1cccc(F)c1F (racemic) [Compound 275]
- Plant response rating, Wheat ([1]; 125 g ai/ha, visual rating on 0 to 100 scale (0 no effect, 100 complete control), approx. 10 days): 40
- Plant response rating, Wheat ([1]; 500 g ai/ha, 0 to 100 scale (0 no effect, 100 complete control)): 70
- Plant response rating, Rice [2]: 0
- Plant response rating, Sedge, Umbrella [3]: 30
- Plant response rating, Ducksalad [4]: 100
- Plant response rating, Barnyardgrass [5]: 85
- Plant response rating, Ryegrass, Italian [6, 14]: 0
- Plant response rating, Ryegrass, Italian [6, 15]: 0
- Plant response rating, Ryegrass, Italian [6, 16]: 5
- Plant response rating, Ryegrass, Italian [6, 17]: 25
- Ryegrass, Italian plant response rating [6, 18]: 15
- Ryegrass, Italian plant response rating [6, 19]: 40
- Plant response rating, Ryegrass, Italian [6, 20]: 50
- Plant response rating (scale of 0 to 100), Ryegrass, Italian ([6]; Preemergence, 250 g ai/ha): 60
- Plant response rating, Corn [7, 14]: 0
- Plant response rating, Corn [7, 15]: 0
- Plant response rating, Corn [7, 16]: 0
- Plant response rating, Corn [7, 17]: 55
- Corn plant response rating [7, 18]: 0
- Corn plant response rating [7, 19]: 10
- Plant response rating, Corn [7, 20]: 75
- Plant response rating (scale of 0 to 100), Corn ([7]; Preemergence, 250 g ai/ha): 75
- Plant response rating, Johnsongrass [8, 14]: 0
- Plant response rating, Johnsongrass [8, 15]: 0
- Plant response rating, Johnsongrass [8, 16]: 0
- Plant response rating, Johnsongrass [8, 17]: 25
- Johnsongrass plant response rating [8, 18]: 10
- Johnsongrass plant response rating [8, 19]: 50
- Plant response rating, Johnsongrass [8, 20]: 75
- Plant response rating (scale of 0 to 100), Johnsongrass ([8]; Preemergence, 250 g ai/ha): 85
- Plant response rating, Nutsedge, Yellow [9, 14]: 0
- Plant response rating, Nutsedge, Yellow [9, 15]: 0
- Plant response rating, Nutsedge, Yellow [9, 16]: 0
- Plant response rating, Nutsedge, Yellow [9, 17]: 20
- Nutsedge, Yellow plant response rating [9, 18]: 45
- Nutsedge, Yellow plant response rating [9, 19]: 25
- Plant response rating, Nutsedge, Yellow [9, 20]: 35
- Plant response rating (scale of 0 to 100), Nutsedge, Yellow ([9]; Preemergence, 250 g ai/ha): 100
- Plant response rating, Pigweed [10, 14]: 5
- Plant response rating, Pigweed [10, 15]: 5
- Plant response rating, Pigweed [10, 16]: 30
- Plant response rating, Pigweed [10, 17]: 35
- Pigweed plant response rating [10, 18]: 0
- Pigweed plant response rating [10, 19]: 0
- Plant response rating, Pigweed [10, 20]: 10
- Plant response rating (scale of 0 to 100), Pigweed ([10]; Preemergence, 250 g ai/ha): 40
- Plant response rating, Ragweed [11, 14]: 20
- Plant response rating, Ragweed [11, 15]: 65
- Plant response rating, Ragweed [11, 16]: 70
- Plant response rating, Ragweed [11, 17]: 70
- Ragweed plant response rating [11, 18]: 5
- Ragweed plant response rating [11, 19]: 5
- Plant response rating, Ragweed [11, 20]: 60
- Plant response rating (scale of 0 to 100), Ragweed ([11]; Preemergence, 250 g ai/ha): 85
- Plant response rating, Soybean [12, 14]: 0
- Plant response rating, Soybean [12, 15]: 0
- Plant response rating, Soybean [12, 16]: 0
- Plant response rating, Soybean [12, 17]: 10
- Soybean plant response rating [12, 18]: 0
- Soybean plant response rating [12, 19]: 0
- Plant response rating, Soybean [12, 20]: 0
- Plant response rating (scale of 0 to 100), Soybean ([12]; Preemergence, 250 g ai/ha): 15
- Plant response rating, Oilseed Rape [13, 14]: 5
- Plant response rating, Oilseed Rape [13, 15]: 5
- Plant response rating, Oilseed Rape [13, 16]: 35
- Plant response rating, Oilseed Rape [13, 17]: 45
- Oilseed Rape plant response rating [13, 18]: 0
- Oilseed Rape plant response rating [13, 19]: 50
- Plant response rating, Oilseed Rape [13, 20]: 90
- Plant response rating (scale of 0 to 100), Oilseed Rape ([13]; Preemergence, 250 g ai/ha): 90
